Test results reported in patent publication US20220409608A1, “DIMERIC NAPHTHALIMIDE FORMULATIONS” (ALUCENT BIOMEDICAL, INC., priority 2019, published 2022).

Legend:
Format in all cases: physicochemical
[1] = Combination of exemplary composition and radiographic contrast agent, UPLC; conditions: for Increase in the amount of impurities of Compound of Formula (I), HPLC chromatograms: initial and 24-hour timepoints
Experimental: (§1) The purity of a composition was analyzed by UPLC on a 2.1×100 mm C18 column with 1.7 μm packing. The analytical method was a 7 minute gradient at 30° C. and a flowrate of 0.61 mL/min consisting of acetonitrile, water, and trifluoracetic acid. Absorption was measured at 210 nm and 440 nm.
Equal volumes of a formulation from Example 1 and radiographic contrast agent (Omnipaque or Isovue), as received from the manufacturer, were drawn into separate syringes. The two syringes were connected to an indeflator by a three-way joint/stopcock. The indeflator was evacuated and the mixtures from both syringes were transferred into the indeflator. The indeflator was then inverted six times to ensure complete mixing of the mixtures. The resulting mixture was a yellow/orange translucent mixture, stored in an amber scintillation vial at room temperature, and analyzed by UPLC upon storage and after 24 hours.

[2] = Combination of exemplary composition and paclitaxel injection solution, UPLC; conditions: for Compound of Formula (I) (HPLC area-%) / Total impurities (HPLC area-%): equal volumes of formulation and paclitaxel injection solution (6 mg/mL); for Compound of Formula (I) (HPLC area-%) / Total impurities (HPLC area-%) / Stability after being combined in the same composition: room temperature; for Stability after being combined in the same composition: seven hours after combining Compound of Formula (I) formulation and paclitaxel
Experimental: as §1
Equal volumes of a formulation from Example 1 and paclitaxel injection solution (6 mg/mL; used as received from manufacturer) were combined in an amber scintillation vial and stored at room temperature. The resulting mixture was a clear yellow solution. An aliquot was obtained, diluted 1:10 with 0.1% aqueous TFA and analyzed by UPLC as described herein. Another aliquot was obtained, 7 hours after preparation of the mixture, and similarly diluted and analyzed.

[3] = Stability of formulations at 40° C. at various pH values (impurities by UPLC)
Experimental: as §1
To determine the stability of the formulations described herein, the amount of impurities was measured. A formulation was added to a 10 mL amber vial and stored at 40° C. in a constant temperature chamber. At the desired time point(s), the formulation was analyzed by UPLC and the pH was measured. No change in physical appearance was observed.

[4] = equal volumes of formulation and Isovue, room temperature, t = 0 hours
[5] = equal volumes of formulation and Isovue, room temperature, t = 24 hours
[6] = equal volumes of formulation and Omnipaque, room temperature, t = 0 hours
[7] = equal volumes of formulation and Omnipaque, room temperature, t = 24 hours

NCCOCCOCCNc1ccc2c3c(cccc13)C(=O)N(CCOCCOCCN1C(=O)c3cccc4c(NCCOCCOCCN)ccc(c34)C1=O)C2=O [Compound of Formula (I), 2,2′-((ethane-1,2-diylbis(oxy))bis(ethane-2,1-diyl))bis(6-((2-(2-(2-aminoethoxy)ethoxy)ethyl)amino)-1H-benzo[de]isoquinoline-1,3(2H)-dione)]
Stability when combined with a radiographic contrast agent ([1]; after 24 hours, room temperature): stable | Compound of Formula (I) (HPLC area-%) [1, 4]: 98.98 HPLC area-% | Total impurities (HPLC area-%) [1, 4]: 1.02 HPLC area-% | Compound of Formula (I) (HPLC area-%) [1, 5]: 98.97 HPLC area-% | Total impurities (HPLC area-%) [1, 5]: 1.03 HPLC area-% | Compound of Formula (I) (HPLC area-%) [1, 6]: 98.98 HPLC area-% | Total impurities (HPLC area-%) [1, 6]: 1.02 HPLC area-% | Compound of Formula (I) (HPLC area-%) [1, 7]: 98.95 HPLC area-% | Total impurities (HPLC area-%) [1, 7]: 1.05 HPLC area-% | Increase in the amount of impurities of Compound of Formula (I), HPLC chromatograms ([1]; mixture with Isovue, FIG. 5): no increase | Increase in the amount of impurities of Compound of Formula (I), HPLC chromatograms ([1]; mixture with Omnipaque, FIG. 6): no increase | Compound of Formula (I) (HPLC area-%) ([2]; 0 hours): 98.9 HPLC area-% | Total impurities (HPLC area-%) ([2]; 0 hours): 1.1 HPLC area-% | Compound of Formula (I) (HPLC area-%) ([2]; 1 hour): 98.9 HPLC area-% | Total impurities (HPLC area-%) ([2]; 1 hour): 1.1 HPLC area-% | Compound of Formula (I) (HPLC area-%) ([2]; 4 hours): 98.9 HPLC area-% | Total impurities (HPLC area-%) ([2]; 4 hours): 1.1 HPLC area-% | Compound of Formula (I) (HPLC area-%) ([2]; 7 hours): 98.9 HPLC area-% | Total impurities (HPLC area-%) ([2]; 7 hours): 1.1 HPLC area-% | Increase in the amount of impurities of Compound of Formula (I), HPLC chromatograms ([2]; mixture with paclitaxel, 1- and 7-hour time points, FIG. 7): no increase | Stability after being combined in the same composition [2]: stable | Increase in impurity concentration ([3]; composition at a pH ranging from 5 to 7): minimal | Degradation in compositions ([3]; compositions having a pH of less than 5 or greater than 7): degrade appreciably

CC(=O)O[C@H]1C(=O)[C@@]2(C)[C@H]([C@H](OC(=O)c3ccccc3)[C@]3(O)C[C@H](OC(=O)[C@H](O)[C@@H](NC(=O)c4ccccc4)c4ccccc4)C(C)=C1C3(C)C)[C@]1(OC(C)=O)CO[C@@H]1C[C@@H]2O [paclitaxel, reference compound]
Increase in the amount of impurities of paclitaxel, HPLC chromatograms ([2]; mixture of Compound of Formula (I) and paclitaxel, 1- and 7-hour time points, FIG. 8): no increase | Stability after being combined in the same composition [2]: stable
